Test results as given in PubChem BioAssay AID2579 (University of Pittsburgh Molecular Library Screening Center, 2010).
Active and inactive are the calls of the source. How the calls were made is not given here.

Each compound was assayed against Glucose-6-phosphate 1-dehydrogenase (Leuconostoc mesenteroides) (UniProt P11411) (assay: Leuconostoc G6PDH inhibition potency, SAR follow-up, counter-screen for TbHK1 inhibitor project, biochemical, analogue series, IC50 (AID 2579)). Conditions: Purified L. mesenteroides G6PDH enzyme assay, counterscreen.
Sequence of Glucose-6-phosphate 1-dehydrogenase (Leuconostoc mesenteroides) (P11411 whole entry, looked up): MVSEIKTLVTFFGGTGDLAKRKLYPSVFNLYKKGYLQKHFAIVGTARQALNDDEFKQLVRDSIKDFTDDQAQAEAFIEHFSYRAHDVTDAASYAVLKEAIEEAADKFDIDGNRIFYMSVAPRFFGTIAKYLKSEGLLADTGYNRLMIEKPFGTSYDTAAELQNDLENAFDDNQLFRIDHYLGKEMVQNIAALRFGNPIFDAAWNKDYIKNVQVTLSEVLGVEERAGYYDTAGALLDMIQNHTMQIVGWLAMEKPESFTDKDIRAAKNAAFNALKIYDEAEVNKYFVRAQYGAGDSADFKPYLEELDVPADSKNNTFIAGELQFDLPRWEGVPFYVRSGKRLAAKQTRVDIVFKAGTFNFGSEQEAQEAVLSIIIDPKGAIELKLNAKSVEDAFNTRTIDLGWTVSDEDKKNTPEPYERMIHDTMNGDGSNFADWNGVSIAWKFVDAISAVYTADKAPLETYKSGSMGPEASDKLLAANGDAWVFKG

Row | IC50 | SMILES
1 | > 25 µM (inactive) | COc1ccc(C(=O)Nc2cc(Cl)ccc2O)cc1
2 | > 25 µM (inactive) | COc1ccc(C(=O)Nc2cc(Cl)c(Br)cc2C(=O)O)cc1
3 | > 25 µM (inactive) | COc1ccc(C(=O)Nc2cc(Cl)c(C)cc2C(=O)O)cc1
4 | > 25 µM (inactive) | COc1ccc(N2C(=O)c3ccc(Cl)cc3C2=O)cc1
5 | > 25 µM (inactive) | CC(C)(C)c1ccc(C(=O)Nc2cc(Cl)ccc2O)cc1
6 | > 25 µM (inactive) | C=C(C)c1ccc(C(=O)Nc2cc(Cl)ccc2C(=O)O)cc1
7 | > 25 µM (inactive) | CC(C)(C)c1ccc(C(=O)Nc2cc(Cl)ccc2-c2nn[nH]n2)cc1

More lines, now with the values behind:

Row | SMILES | IC50
8 | CC(C)(C)c1ccc(C(=O)Nc2cc(Cl)c(Br)cc2C(=O)O)cc1 | > 25 µM (inactive)
9 | Cc1cc(C(C#N)c2ccc(Cl)cc2)c(Cl)cc1NC(=O)c1cc(I)cc(I)c1O (centres undefined) | > 25 µM (inactive)
10 | CC(C)(C)c1ccc(C(=O)Nc2cc(Cl)c(F)cc2C(=O)O)cc1 | > 25 µM (inactive)
11 | CC(C)(C)c1ccc(C(=O)Nc2cc(Br)ccc2C(=O)O)cc1 | > 25 µM (inactive)
12 | CC(C)(C)c1ccc(C(=O)Nc2cc(Cl)c(Cl)cc2C(=O)O)cc1 | > 25 µM (inactive)
13 | CC1(c2ccc(C(=O)Nc3cc(Cl)ccc3C(=O)O)cc2)CC1 | > 25 µM (inactive)
14 | O=c1c(O)c(-c2ccc(O)c(O)c2)oc2cc(O)cc(O)c12 | > 25 µM (inactive)
